These results are taken from patent US20090137641A1, “Potassium Channel Activators for the Prevention and Treatment of Dystonia and Dystonia-Like Symptoms” (priority 2006, published 2009).

Where “and” joins values, the source holds several entries; their conditions need not be identical. Equal values may be shown once. Read-outs that look alike come from different tables or passages of the source.

Data set [1] concerns dt^sz mutant hamster. Type of data set: in vivo, Syrian golden hamsters. As to conditions: for suppressing the symptoms of dystonia (summary statement): summary for the two animal models of dystonia/dyskinesia, no dose given; for Maximum severity 1st h, drug: individual animals and Mean, score 0-6; for Latency to onset (min), Drug: time to stage 2, mean ± S.E.; for Latency max (min), drug: latency to stage 6. The text has this:
Animals The dt^sz mutant hamsters (Syrian golden hamsters), used in the present experiments, were obtained by selective breeding as described in detail elsewhere (Richter and Löscher, 1998). In this inbred line of mutant hamsters the motor disturbances are transmitted by a recessive gene. All animal groups consisted of male and female hamsters, because there was no indication of sex-related differences in the severity of dystonia or in the response to drugs (Richter and Löscher, 1998). The animals were born and kept under controlled environmental conditions (23-25° C., 50-60% humidity, 13 h light/11 h dark cycle) with free access to standard Altromin 7204 diet and water. In cases of oral administrations the food was deprived for 2 h prior to the experiments. All experiments were carried out in the morning (08.30-12.00 a.m.) at controlled temperatures (23-25° C.).
Induction of dystonic episodes and severity-score of dystonia. […] After this procedure, dt^sz hamsters develop a sequence of abnormal movements and postures. Dystonia is the predominant symptom in these animals. The severity of dystonia can be rated by following score-system (Richter and Löscher, 1998): stage 1, flat body posture; stage 2, facial contortions, rearing with forelimbs crossing, disturbed gait with hyperextended forepaws; stage 3, hyperextended hindlimbs so that the animals appear to walk on tiptoes; stage 4, twisting movements and loss of balance; stage 5, hindlimbs hyperextended caudally; stage 6, immobilisation in a twisted, hunched posture with hind- and forelimbs tonically extended forward. After reaching the individual maximum stage the hamsters recover within 2-5 hours. The individual maximum stage of dystonia is usually reached within 3 hours after the hamsters were placed into the new cage. Therefore, the animals have to be observed for 3 h after the induction of dystonic attacks to determine the individual maximum stage reached after administrations of drugs or of vehicle (for pre- and post-drug control recordings).
In the present study, all animals were examined for the presence of dystonia after weaning at the age of 21 days by the triple stimulation procedure, including injections of saline. […] All groups of mutant hamsters used for investigations were repeatedly tested by triple stimulations (injections of saline) every 2 to 3 days after weaning until the severity of dystonia and latencies to the different stages were reproducible. The drug experiments were done in 30-42 days old hamsters, i.e. at an age of the maximum severity of dystonia.
Drug experiments The effects of the Kv7.2/7.3 channel activators retigabine (5, 7.5 and 10 mg/kg i.p. and 10 and 20 mg/kg p.o.) and flupirtine (10 and 20 mg/kg i.p.) were examined in groups of 6-10 dt^s/z hamsters. The total number of animals used for the present experiments was 68. The compounds were freshly dissolved in saline prior the experiments. Dystonic attacks were induced by the procedure of triple stimulation, as described above, but instead of saline the active compound was injected (injection volume: 5 ml/kg i.p. or p.o.). Pre- and post-drug control trials with the vehicle (injection volume: 5 ml/kg saline i.p. or p.o.) were undertaken 2-3 days before and 2-3 days after drug testing in the same animals. […] During this period the severity of dystonia, the latencies to the different stages and the side effects were noted. The rater of the severity score (and of the latencies to stages) was unaware whether the animals were treated with vehicle or an active principle. A second person who had done the preparation of the solutions observed the animals for behavioural effects. The side effects were not quantified, but locomotor activity and ataxia were determined according to a score system, as previously described (Löscher and Richter, 1994). […]

For data set [2], the system named is L-DOPA induced dyskinesia in 6-OHDA lesioned rats. Briefly: chronic model of L-DOPA induced dyskinesia in unilaterally 6-OHDA lesioned rats (dyskinesia score). It counts as in vivo. The arrangement: side effects: dose or concentration left out as unconfirmed. The text has this: Method: The model has been developed by Cenci, Lee and Bjorklund (L-DOPA-induced dyskinesia in the rat is associated with striatal overexpression of prodynorphin- and glutamic acid decarboxylase mRNA, Eur J. Neurosci. 1998; 10:2694-706) and was modified to show more severe dyskinesia. In brief, rats are first unilaterally lesioned in the medial forebrain bundle resulting in a near complete loss of the mesostriatal dopamine pathway. After a recovery, rats receive daily doses of both, L-DOPA and benserazide. Within less than 3 weeks, rats develop typical dyskinetic movements, both affecting their forearms and the oral regions. […] The dyskinesia can be quantified using an easy and reliable scoring system developed by Cenci et al.
Dopamine-denervating lesions were performed by unilateral injections of 8 μg 6-OHDA in the left medial forebrain bundle of female Sprague-Dawley rats. All rats were tested for amphetamine-induced rotational behaviour 2 weeks after the injection. Rats showing >4 ipsilateral rotations/min over a 90-minute period were presumed to have a striatal dopamine depletion of more than 90%. At 4 weeks post lesion, 2 groups started to receive chronic treatment with either 20 mg/kg levodopa and 15 mg/kg benserazide or vehicle for 20 days. For rating, dyskinesia was classified into three subtypes (limb, axial and orolingual) and scored from 0 (=absent) to 4 (=permanent, not suppressible) over 200 minutes and every 30 minutes.
Results and Discussion: For drug testing, retigabine (2.5 and 5 mg/kg) was administered additional to levodopa and vehicle respectively. Effects of drug action in comparison to vehicle controls were detected by adding up the severity scores of each observation time.
To test the effect of flupirtine, the compound was administered at the dose of 10 mg/kg i.p. after administration of L-DOPA in these rats. A full cross over design was utilized to account for individual variability. […] The studies are ongoing and will we extended to cover a full dose range. Also, other neuronal potassium channel openers covered by the patent application will be tested. […]

The mark [3] stands for this setting: mean of 10 animals, 20 mg/kg i.p., age 36-38 days of life.
Where [4] appears, read: 20 mg/kg p.o., first hour after administration.

As for `COc1ccc(Cl)cc1C1(F)C(=O)Nc2cc(C(F)(F)F)ccc21` (stereo not shown) [maxipost, 3-(5-chloro-2-methoxyphenyl)-1,3-dihydro-3-fluoro-6-(trifluoromethyl)-2H-indole-2-one], the “suppressing the symptoms of dystonia (summary statement)” value in data set [1] is “found to be active”.
For the molecule `CCOC(=O)Nc1ccc(NCc2ccc(F)cc2)nc1N` [Flupirtine, ethyl-N-[2-amino-6-(4-fluorophenylmethylamino)pyridin-3-yl]-carbamate], in data set [1] (10 mg/kg i.p.), the antidystonic effects result is on record as “did not exerted significant antidystonic effects”; the “Maximum severity 1st h, drug” value was 3 score (6×) and 2 score (2×). Besides, in data set [1] (10.0 mg/kg i.p., n=8), the “Latency to onset (min), Drug” value was 6.9 ± 1.6 min. Moreover, the adverse effects entry in data set [1] (10 mg/kg i.p., within the first hour after administration) is “moderate hypolocomotion and ataxia”. For the same molecule, in data set [1] (20 mg/kg i.p.), the ataxia entry is listed as “more marked ataxia (lasting up to 90 min)” and the “latency to onset of dystonia” value is reported as “increased the latency to onset of dystonia”. In data set [1] (20 mg/kg i.p., first and second h), the progression of dystonia entry is listed as “delayed the progression of dystonia”. Moreover, the locomotion result in data set [1] (20 mg/kg i.p., hyperlocomotion 15-60 min after injection) is “unequivocal hypolocomotion (5 to 15 min after injection) followed by hyperlocomotion”. Also, in data set [1] (20 mg/kg i.p., third h), the “maximum severity of dystonia” value was “reduced the maximum severity”. Also, the “Latency to onset (min), Drug” value in data set [1] (20.0 mg/kg i.p., n=10, *P<0.05) is listed as 13.8 ± 3.8* min. In addition, in data set [1] (individual animals, 20 mg/kg i.p. (in 0.9% NaCl), dt^sz hamsters, age 36-38 days of life), the “Maximum severity 1st h (score of dystonia), drug” value was determined as 2 score. Besides, the “Latency max (latency to stage 6), drug” value in data set [1] (individual animals, 20 mg/kg i.p., age 36-38 days of life) came to 154 min. In addition, in data set [1] (setting [3]), the “Latency onset (latency on stage 2), drug, Mean” value was found to be 13.8 min; the “Maximum severity 1st h (score of dystonia), drug, Mean” value was 2.0 score; the “Maximum severity 2nd h (score of dystonia), drug, Mean” value was determined as 2.6 score; the “Maximum severity 3rd h (score of dystonia), drug, Mean” value came to 2.9 score. Moreover, the “suppressing the symptoms of dystonia (summary statement)” value in data set [1] is “found to be effective”. Moreover, in data set [2] (10 mg/kg i.p. after administration of L-DOPA), the tolerability entry is on record as “well tolerated”. Also, the dyskinetic symptoms entry in data set [2] (10 mg/kg i.p. after administration of L-DOPA, cross over design) is recorded as “capable of suppressing the typical dyskinetic symptoms”.
For the molecule `O=C1c2ccccc2C(Cc2ccncc2)(Cc2ccncc2)c2ccccc21` [XE-991, 10,10-bis(4-pyridinylmethyl)-9(10H)-anthracenone], the side effects result in data set [1] (6 mg/kg as printed, two out of 8 animals, facial contortions 10-20 min after administration) is “moderate to unequivocal hyperlocomotion and moderate ataxia (up to 180 min) and marked initial facial contortions”; in data set [1] (the higher dose, all hamsters), “facial contortions, salivation and increased defecation”. Besides, the “latency to onset of dystonia” value in data set [1] (i.p., not illustrated) was “tended to be decreased”. Further, in data set [1] (the higher dose, first h after administration), the “side effects: locomotion and ataxia” value is “unequivocal hyperlocomotion and ataxia”.
`CCOC(=O)Nc1ccc(NCc2ccc(F)cc2)cc1N` [Retigabine, 2-amino-4-(4-fluorobenzylamino)-1-ethoxycarbonyl-aminobenzene]: the “Latency max (min), drug” value in data set [1] (5 mg/kg i.p., individual animals) was 43 min and 87 min and 39 min; in data set [1] (7.5 mg/kg i.p., individual animals), 149 min; in data set [1] (10 mg/kg p.o., individual animals), 168 min and 148 min; in data set [1] (20 mg/kg p.o., individual animals), 104 min. Also, the “Latency to onset (min), Drug” value in data set [1] (5.0 mg/kg i.p., n=9) is reported as 27.1 ± 17.7 min; in data set [1] (7.5 mg/kg i.p., n=6, *P<0.05), 11.8 ± 1.0* min; in data set [1] (10.0 mg/kg i.p., n=9), 7.1 ± 2.9 min; in data set [1] (10.0 mg/kg p.o., n=7), 4.9 ± 2.9 min; in data set [1] (20.0 mg/kg p.o., n=10) it was 9.6 ± 2.0 min. Further, in data set [1] (10 mg/kg i.p., first 5 min after injection), the pain after injection entry is “writhed with pain”. Besides, the “Maximum severity 1st h, drug” value in data set [1] (10 mg/kg p.o.) was 3 score (6×) and 2 score; in data set [1] (20 mg/kg p.o.), 2 score (9×) and 3 score. Further, the locomotor activity entry in data set [1] (10 mg/kg p.o., two hamsters) is “moderate reduction of the locomotor activity”. Moreover, the ataxia entry in data set [1] (setting [4]) is “seven animals exhibited moderate ataxia”. In addition, the hypolocomotion entry in data set [1] (setting [4]) is reported as “five hamsters showed moderate hypolocomotion”. Besides, the general condition result in data set [1] (four hamsters, 5 mg/kg i.p. five days after 10 mg/kg i.p., one euthanized, dilated colon) is “bad general condition”. Further, the behavioural effects result in data set [1] (i.p. injection, within the first h after administration) was “moderate to unequivocal hypolocomotion (sometimes interrupted by short lasting periods of increased locomotor activity) and ataxia”. Besides, the side effects entry in data set [1] (oral doses of 10 and 20 mg/kg) is “did not exert severe side effects”; in data set [2] (higher dosage, first hour of observation), “marked hypolocomotion and ataxia”.
